{
  "source": "patent US20090036380A1",
  "about": "“Composition And Method For Brain Tumor Therapy” (Yeda Research and Development Co., Ltd., priority 2006, published 2009)",
  "key": {"PC12 cells [1]": {"system": "PC12 cells", "assay": "Effect of pathway proteins and inhibitors on Karet-induced cell death in PC12 cells", "format": "cell-based, rat"}, "[2]": {"system": "human medulloblastoma cells (MED 283) stably transfected to express TrkA", "details": "cited from earlier work"}, "PC12 cells [3]": {"system": "PC12 cells", "assay": "Viability / death of PC12 cells after transfection with Karet constructs (Live/dead kit, FACS, cell counting, Hoechst)", "format": "cell-based, rat", "protocol": "FIG. 5a is a bar-graph of FACS data depicting 50 percent death of PC12 cells overexpressing Karet. Shown is a FACS analysis of PC12 viability 15 hours after transfection with Ha-Karet or control vector using Live/dead kit (Molecular probes), T-test=0.003.\nFIG. 5b is a series of fluorescence photomicrographs depicting death of PC12 cells caused by Karet overexpression. Shown is a live/dead kit analysis of PC12 cells overexpressing Ha-Karet (left panels) versus control vector-transfected cells (right panels). Live cell are stained in green, dead cells are stained in red. Upper panels each show red fluorescence only (left picture) and green fluorescence only (right picture) pairs, and lower panels each show combined red and green fluorescence (left picture) and light microscopy images (right picture) pairs.\nFIG. 5d is a pair of Hoechst stain histology photomicrographs depicting condensation of chromatin indicating apoptosis in PC12 cells expressing Karet, but not in control cells transfected with vector only.\nFIG. 5e is a histogram depicting that Karet expression induces cell death of TrkA expressing cells, which is increased by NGF treatment and is decreased by necdin. PC12 or PC12 necdin stable cell line were electroporated with Karet or GFP control and incubated with or without 50 ng/ml NGF for 12 hours. Cells were counted and result presented as percent of control.\nPC12 cells were transfected with Ha Karet, PTB, non PTB and their combinations. Cells were analyzed by FACS 18 hours after transfection using the dead/live kit. N=3; * p<0.05; **p<0.001;\nThe lower panel is a histogram depicting that Karet-mediated cell death correlates well with expression levels of the Karet protein. PC12 Tet-on cells were electroporated with Ha-Karet cloned under inducible promoter and incubated for 24 hours with different concentrations of doxycycline. Cells transfected with Karet but not treated with doxycycline served as control. Cells were counted and the results were determined as percent of control. The upper panel is a control Western blot depicting increased Karet expression with increased concentrations of doxycycline. Cells transfected with Karet and treated with doxycycline were lysed in NP-40 buffer and subjected to SDS-PAGE analysis. Similar amount of protein was loaded and blotted for Karet expression with Ha antibody. Proteins levels were checked with anti-tubulin antibody.\nFIG. 18a—PC12 were transfected with Ha Karet, Karet F217V, PTB F217V or a control vector (pcDNA3) and 18 hours after transfection the effect of Karet or Karet mutants on cell death was determined using the dead/live kit and FACS analysis. Results are presented in percentages as compared to cells transfected with the control vector. N=3 **P<0.001. […] FIG. 18b—Cells were lysed 24 hours after transfection, fractionated on SDS-PAGE and immunoblot for anti Ha (Covance).\nFIG. 19 is a histogram depicting FACS analysis of Karet-induced death. PC12 cells were co-transfected with Karet and the PTB, non-PTB or the F217V mutant at different ratios (1:1, 1:2, 1:3) and 18 hours after transfection the cells were analyzed by FACS using the dead/live kit.\nViability of cells was evaluated using the Live/dead viability/cytotoxicity kit (Cat. No. L-3224), Molecular Probes, Inc., Eugene, Oreg., USA, according to manufacturer's instructions."}, "TrkA [4]": {"system": "TrkA", "assay": "Co-immunoprecipitation of HA-Karet constructs with TrkA", "format": "binding", "details": "co-transfected Hek or NNR5 cells, anti-HA IP", "protocol": "(§1) FIG. 3c is a co-immunoprecipitation assay depicting co-immunoprecipitation of HA-Karet with TrkA in COS cells. Karet tagged with the HA epitope was immunoprecipitated with anti-HA antibody and the blot was incubated with anti-TrkA (RTA). In control experiments the HA-Karet was substituted with vector.\n(§2) FIG. 3d is a co-immunoprecipitation assay depicting interaction of Karet and TrkA in NNR5 cells transfected with TrkA.\n(§3) FIG. 3e is a co-immunoprecipitation assay depicting co-immunoprecipitation of HA-Karet with TricA in co-transfected NNR5 cells immunoprecipitated with anti-HA (Roche) and Western blot with the anti-TrkA antibody C14 (Santa Cruz).\n(§4) FIGS. 4a-c are co-immunoprecipitation assay results depicting the influence of NGF treatment on TrkA-Karet interaction. FIG. 4a depicts that TrkA-Karet interaction occurred prior to NGF treatment and was enhanced after ligand stimulation for 10 minutes (10 m) or 2 hours (2 h). HA-Karet was electroporated into cell line PC12, and the cells were treated with 50 ng/ml NGF for the indicated time periods in order to activate p75 and TrkA. Karet tagged with the HA epitope was immunoprecipitated with anti-HA antibody, the precipitated proteins were separated electrophoretically, and gel blots were incubated with anti-TrkA antibody (RTA). FIG. 4b depicts that necdin seems to compete with TrkA for binding to Karet. myc-Karet was electroporated into necdin stable cell line, and the cells were treated with 50 ng/ml NGF for the indicated time periods. Karet tagged with the myc epitope was immunoprecipitated with anti-myc antibody, the precipitated proteins were separated electrophoretically, and gel blots were incubated with anti-TrkA antibody (RTA). […] A blot from the same experiment was stripped and re-incubated with anti-necdin antibody. The arrow indicates the glycosylated form of TrkA (molecular weight of 140 kDa).\n(§5) FIG. 7b is an immunoprecipitation assay depicting that the PTB domain-containing Karet(1-228) mutant, but not Karet(228-453) co-immunoprecipitates with TrkA in NNR5 cells. Truncation mutants tagged with the HA epitope were immunoprecipitated with anti-HA antibody, the precipitated proteins were separated electrophoretically, and gel blots were incubated with anti-TrkA (RTA).\n(§6) FIGS. 24a-d depict co IP of Ha Karet with TrkA, TrkB, TrkC, p75 from co-transfected Hek cells. Cells were co-transfected with Ha Karet or control vector and TrkA, TrkB, TrkC or p75. Cells were lysed with NP40, the HA-beads (beads conjugated to anti-HA antibody) were blocked with Hek lysate, and elution was done for 30 minutes at 37° C. […]"}, "TrkA [5]": {"target": "T1, TrkA (Rattus norvegicus, UniProt P35739)", "T1 construct": "expressed in transfected cells", "T1 sequence (P35739 33-799)": "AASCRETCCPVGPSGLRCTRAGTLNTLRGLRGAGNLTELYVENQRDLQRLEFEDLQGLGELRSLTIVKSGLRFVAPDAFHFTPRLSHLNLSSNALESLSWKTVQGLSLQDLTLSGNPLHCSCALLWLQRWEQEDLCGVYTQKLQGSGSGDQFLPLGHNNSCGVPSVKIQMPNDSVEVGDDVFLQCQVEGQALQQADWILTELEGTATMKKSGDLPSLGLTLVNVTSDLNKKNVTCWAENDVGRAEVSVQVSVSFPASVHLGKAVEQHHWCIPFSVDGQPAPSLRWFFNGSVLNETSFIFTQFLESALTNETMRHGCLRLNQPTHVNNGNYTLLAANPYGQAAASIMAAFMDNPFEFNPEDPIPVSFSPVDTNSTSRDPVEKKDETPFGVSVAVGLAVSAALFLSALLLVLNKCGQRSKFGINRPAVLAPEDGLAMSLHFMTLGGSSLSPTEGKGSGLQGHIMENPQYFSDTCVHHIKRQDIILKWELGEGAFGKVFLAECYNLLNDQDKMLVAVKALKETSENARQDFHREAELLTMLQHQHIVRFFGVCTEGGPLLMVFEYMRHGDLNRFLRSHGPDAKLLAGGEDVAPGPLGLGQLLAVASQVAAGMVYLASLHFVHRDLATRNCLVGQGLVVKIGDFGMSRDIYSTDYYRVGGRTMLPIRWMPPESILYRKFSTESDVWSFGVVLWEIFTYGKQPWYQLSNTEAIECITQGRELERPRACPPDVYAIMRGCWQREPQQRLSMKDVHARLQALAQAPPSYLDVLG", "assay": "Co-immunoprecipitation of HA-Karet constructs with TrkA", "format": "binding", "details": "PC12 cells transfected with Karet; 50 ng/ml NGF, 10 minutes and 2 hours", "protocol": "as §1, §2, §3, §4, §5, §6"}},
  "data": [
    {"compound": "COC(=O)[C@@]1(O)C[C@H]2O[C@]1(C)n1c3ccccc3c3c4c(c5c6ccccc6n2c5c31)C(=O)NC4", "note": "[K252a, reference compound]", "values": [
      {"measurement": "effect on cell death effect of Karet", "setting": "PC12 cells [1]; PC12 cells expressing Karet, 12 hours, different concentrations of K252A", "result": "diminished the cell death effect of Karet"},
      {"measurement": "effect on NGF-induced apoptosis", "setting": "[2]; TrkA-medulloblastoma cells", "result": "inhibited"}
    ]},
    {"compound": "C[S+]([O-])c1ccc(-c2nc(-c3ccncc3)c(-c3ccc(F)cc3)[nH]2)cc1", "note": "(centres unmarked) [SB203580, reference compound]", "values": [
      {"measurement": "effect on cell death induction by Karet", "setting": "PC12 cells [1]; PC12 electroporated with Karet, 10 micromolar SB203580", "result": "did not affect cell death induction"}
    ]},
    {"compound": "Karet(228-453): C-terminal truncation mutant of mouse Karet, amino acid residues 228-453 (SEQ ID NO:8)", "values": [
      {"measurement": "effect on Karet-induced death in competition assay", "setting": "PC12 cells [3]; PC12 co-transfected with Karet at ratios 1:1, 1:2, 1:3, FACS 18 hours after transfection", "result": "reduced Karet-induced death"},
      {"measurement": "co-immunoprecipitation / interaction with TrkA", "setting": "TrkA [4]", "result": "does not"}
    ]},
    {"compound": "NGF: nerve growth factor, neurotrophin ligand of TrkA", "values": [
      {"measurement": "additional increase of death by NGF treatment", "setting": "PC12 cells [3]; PC12 cells overexpressing Karet, 50 ng/ml NGF, 12 hours", "result": 30, "unit": "%"},
      {"measurement": "effect of NGF on TrkA-Karet interaction", "setting": "TrkA [5]", "result": "enhanced"},
      {"measurement": "cell death on NGF treatment", "setting": "[2]; MED 283 cells expressing TrkA", "result": "significant levels of cell death"}
    ]}
  ]
}
